For data set [1], the system named is Hepatocyte. As to the kind of experiment: Induction of apoptosis in isolated HCC model Sprague-Dawley rat hepatocytes assessed as increase in cytochrome C release at 20 uM in presence of BHT by ELISA. It counts as functional, cell-based.
For data set [2], the species on record is Rattus norvegicus. As to the kind of experiment: Induction of ROS production in HCC model Sprague-Dawley rat hepatocyte mitochondria at 10 to 40 uM incubated upto 60 mins by DCFH probe based fluorescence spectrophotometer. The class given is functional.
Data set [3] can be described thus: Effect on SDH activity in Sprague-Dawley rat hepatocyte mitochondria at 10 to 40 uM incubated for 40 mins by MTT assay. The class given is ADME. Particulars: hepatocytes.
For data set [4], the species on record is Rattus norvegicus. Nature of the data set: Induction of mitochondrial membrane potential disruption in HCC model Sprague-Dawley rat hepatocyte assessed as collapsed mitochondrial membrane potential at 10 to 40 uM incubated upto 60 mins by Rhodamine 123 probe based fluorescence spectrophotometry. It counts as functional.
Data set [5] is filed under the species Rattus norvegicus. As to the kind of experiment: Induction of mitochondrial swelling in HCC model Sprague-Dawley rat hepatocyte at 10 to 40 uM. The class given is functional.
The test system of data set [6] is Hepatocyte. As to the kind of experiment: Induction of apoptosis in isolated HCC model Sprague-Dawley rat hepatocytes assessed as increase in cytochrome C release at 20 uM in presence of CsA by ELISA. The class given is functional, cell-based. Background: In an ELISA, binding on a coated surface is turned into a signal by an enzyme label.
Data set [7] is described as follows: Induction of ROS production in Sprague-Dawley rat hepatocyte mitochondria at 10 to 40 uM incubated upto 60 mins by DCFH probe based fluorescence spectrophotometry. Conditions: hepatocytes, 1 h.
Data set [8] deals with Hepatocyte. Nature of the data set: Induction of apoptosis in isolated HCC model Sprague-Dawley rat hepatocytes assessed as increase in cytochrome C release at 20 uM by ELISA relative to control. The class given is functional.
A short description of data set [9]: Induction of mitochondrial swelling in Sprague-Dawley rat hepatocyte at 10 to 40 uM. Conditions: hepatocytes.
For data set [10], the target named is Succinate dehydrogenase [ubiquinone] flavoprotein subunit, mitochondrial (Rattus norvegicus) (UniProt Q920L2). Nature of the data set: Inhibition of SDH in HCC model Sprague-Dawley rat hepatocyte mitochondria at 10 to 40 uM incubated for 40 mins by MTT assay.
Sequence of Succinate dehydrogenase [ubiquinone] flavoprotein subunit, mitochondrial (Rattus norvegicus) (Q920L2 whole entry): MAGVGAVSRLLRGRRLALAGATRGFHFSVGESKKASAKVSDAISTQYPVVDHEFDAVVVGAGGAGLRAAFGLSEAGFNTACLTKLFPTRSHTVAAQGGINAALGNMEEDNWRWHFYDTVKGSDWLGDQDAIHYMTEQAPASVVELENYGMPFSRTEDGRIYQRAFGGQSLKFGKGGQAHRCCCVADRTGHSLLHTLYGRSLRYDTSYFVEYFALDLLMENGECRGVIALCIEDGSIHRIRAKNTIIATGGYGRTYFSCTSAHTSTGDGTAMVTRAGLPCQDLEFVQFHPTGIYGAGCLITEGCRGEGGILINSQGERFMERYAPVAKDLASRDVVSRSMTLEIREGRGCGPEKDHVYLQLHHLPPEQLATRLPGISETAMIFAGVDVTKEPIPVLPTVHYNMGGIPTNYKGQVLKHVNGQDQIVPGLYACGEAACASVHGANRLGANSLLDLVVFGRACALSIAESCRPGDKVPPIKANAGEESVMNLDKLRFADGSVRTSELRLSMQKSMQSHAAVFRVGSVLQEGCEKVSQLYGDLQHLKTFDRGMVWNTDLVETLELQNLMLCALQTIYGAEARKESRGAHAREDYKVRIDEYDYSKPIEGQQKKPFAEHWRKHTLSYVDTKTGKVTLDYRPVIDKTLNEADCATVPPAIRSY
Data set [11] deals with Hepatocyte. Nature of the data set: Induction of apoptosis in isolated HCC model Sprague-Dawley rat hepatocytes assessed as increase in caspase 3 activity at 12 uM relative to control. The class given is functional.
Data set [12] is described as follows: Induction of mitochondrial membrane potential disruption in Sprague-Dawley rat hepatocyte assessed as collapsed mitochondrial membrane potential at 10 to 40 uM incubated upto 60 mins by Rhodamine 123 probe based fluorescence spectrophotometry. Particulars: hepatocytes, 1 h.

The structures appear in SMILES notation. Calls of active or inactive are those of the source. The rule behind the calls is not given here.

These results are taken from ChEMBL document CHEMBL4359935, “Selective toxicity of chrysin on mitochondria isolated from liver of a HCC rat model” (Bioorg Med Chem, 2019).

Regarding `O=c1cc(-c2ccccc2)oc2cc(O)cc(O)c12` [CHRYSIN], the outcome in the data set with Hepatocyte [1] and with Hepatocyte [6] was inactive. Besides, the outcome in the data set filed under Rattus norvegicus [2], in the data set listed under Rattus norvegicus [4] and in the data set filed under Rattus norvegicus [5] was Active. Further, the Activity entry in data set [3], in [7], in data set [9] and in data set [12] was “Non-Toxic” in each case. The “fold change (FC)” value is reported as 1.6 in the data set with Hepatocyte [8] and 2.4 with Hepatocyte [11]. Moreover, the inhibition entry in data set [10] was “Active”.
